Data taken from ChEMBL document CHEMBL1201862, “PubChem BioAssay data set” (2004).
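Method: 48-hour compound exposure of cells in 96-well plates, five concentrations, linear interpolation of endpoints. Here, GI50 denotes the concentration required for 50% inhibition of growth.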 Activity calls are given as the source filed them. Rule as the data show it: active = GI50 up to about 1.1 µM and inactive = higher.

What was measured:
Assay in all cases: NCI-60 cell line screen, 48 h
A498 = test system: A498
SK-MEL-28 = test system: SK-MEL-28
UACC-62 = test system: UACC-62
HCC 2998 = test system: HCC 2998
TK-10 = test system: TK-10
SK-MEL-2 = test system: SK-MEL-2
NCI-H460 = test system: NCI-H460
HT-29 = test system: HT-29
K562 = test system: K562
SN12C = test system: SN12C
OVCAR-3 = test system: OVCAR-3
SF-295 = test system: SF-295
NCI-H522 = test system: NCI-H522
OVCAR-4 = test system: OVCAR-4
LOX IMVI = test system: LOX IMVI
UO-31 = test system: UO-31
U-251 = test system: U-251
SF-268 = test system: SF-268

Measured: GI50

C/C(=N/N)c1sc(-c2nc(C)c(/C(C)=N\N)s2)nc1C
inactive: A498 > 100 µM | SK-MEL-28 > 100 µM | UACC-62 > 92.7 µM | HCC 2998 > 100 µM | TK-10 > 100 µM | SK-MEL-2 > 100 µM | NCI-H460 59.3 µM | HT-29 > 80.9 µM | K562 47.3 µM | SN12C > 100 µM | OVCAR-3 > 100 µM | SF-295 > 100 µM | NCI-H522 > 53.6 µM | OVCAR-4 > 100 µM | LOX IMVI 39.5 µM | UO-31 > 100 µM | U-251 > 100 µM | SF-268 > 100 µM

O=[N+]([O-])c1cc([N+](=O)[O-])c(/C=C/c2ccc(Cl)c(Cl)c2)cc1/C=C/c1ccc(Cl)c(Cl)c1
inactive: A498 > 100 µM | SK-MEL-28 26.5 µM | UACC-62 27.5 µM | HCC 2998 30.3 µM | TK-10 52.5 µM | SK-MEL-2 24.4 µM | NCI-H460 30.4 µM | HT-29 28.1 µM | K562 27.7 µM | SN12C 21.2 µM | OVCAR-3 17.5 µM | SF-295 25.6 µM | NCI-H522 21.5 µM | OVCAR-4 38.7 µM | LOX IMVI 23.7 µM | UO-31 17.5 µM | U-251 33 µM | SF-268 25.8 µM

CN1C/C(=C\C=C\c2ccccc2)C(=O)/C(=C/C=C/c2ccccc2)C1
inactive: A498 > 100 µM | SK-MEL-28 > 100 µM | UACC-62 > 100 µM | HCC 2998 > 100 µM | TK-10 > 100 µM | SK-MEL-2 > 100 µM | NCI-H460 > 100 µM | HT-29 > 100 µM | K562 > 100 µM | SN12C > 100 µM | OVCAR-3 > 100 µM | SF-295 > 100 µM | NCI-H522 54 µM | OVCAR-4 > 100 µM | LOX IMVI > 100 µM | UO-31 > 100 µM | U-251 > 100 µM | SF-268 > 100 µM

Cc1ccc(SC2C(C)(C)N(C(C)C)P2(=O)N(C(C)C)C(C)C)cc1 (configuration not stated)
inactive: A498 > 100 µM | SK-MEL-28 > 95.7 µM | UACC-62 42.1 µM | HCC 2998 64.3 µM | TK-10 > 100 µM | SK-MEL-2 67 µM | NCI-H460 27.5 µM | HT-29 26 µM | K562 17.7 µM | SN12C 38.6 µM | OVCAR-3 55.5 µM | SF-295 70.8 µM | NCI-H522 20.5 µM | OVCAR-4 > 64.9 µM | LOX IMVI 28 µM | UO-31 46.1 µM | U-251 > 59 µM | SF-268 52 µM
